In publication PMC5218480 (PLoS ONE, 2017):

Test system: MV-4-11 cells
Test: Gene expression microarray analysis (Affymetrix PrimeView) and GSEA
Format: cell-based, human
Design: RFU PODN (11730768_x_at) / Fold change /veh PODN (11730768_x_at) / RFU LINC00158 (11744669_a_at) / Fold change /veh LINC00158 (11744669_a_at) / RFU DUSP10 (11751237_a_at) / Fold change /veh DUSP10 (11751237_a_at) / RFU ID3 (11757404_x_at) / Fold change /veh ID3 (11757404_x_at) / RFU PLEKHG5 (11737974_s_at) / Fold change /veh PLEKHG5 (11737974_s_at) / RFU LRRC4B (11730491_at) / Fold change /veh LRRC4B (11730491_at) / RFU GIMAP4 (11747438_a_at) / Fold change /veh GIMAP4 (11747438_a_at) / RFU KRT8 (11758183_x_at) / Fold change /veh KRT8 (11758183_x_at) / RFU CNN1 (11734310_a_at) / Fold change /veh CNN1 (11734310_a_at) / RFU VPS37D (11726825_at) / Fold change /veh VPS37D (11726825_at) / RFU C10orf10 (11716522_x_at) / Fold change /veh C10orf10 (11716522_x_at) / RFU KIR2DL2 /// KIR2DL4 /// KIR2DL5A /// KIR2DL5B /// KIR2DS1 /// KIR2DS2 /// KIR2DS3 /// KIR2DS4 /// KIR3DL3 /// KIR3DL3 /// KIR3DS1 (11738374_at) / Fold change /veh KIR2DL2 /// KIR2DL4 /// KIR2DL5A /// KIR2DL5B /// KIR2DS1 /// KIR2DS2 /// KIR2DS3 /// KIR2DS4 /// KIR3DL3 /// KIR3DL3 /// KIR3DS1 (11738374_at) / RFU C1QL1 (11718748_at) / Fold change /veh C1QL1 (11718748_at) / RFU TMPRSS4 (11747572_a_at) / Fold change /veh TMPRSS4 (11747572_a_at) / RFU HAMP (11756126_x_at) / Fold change /veh HAMP (11756126_x_at) / RFU RNFT2 (11725882_a_at) / Fold change /veh RNFT2 (11725882_a_at) / RFU NR4A2 (11747474_a_at) / Fold change /veh NR4A2 (11747474_a_at) / RFU ABCC12 (11746883_a_at) / Fold change /veh ABCC12 (11746883_a_at) / RFU TMEM136 (11760407_x_at) / Fold change /veh TMEM136 (11760407_x_at) / RFU CLDN22 /// WWC2 (11732394_at) / Fold change /veh CLDN22 /// WWC2 (11732394_at) / RFU HLA-DPB1 (11760878_x_at) / Fold change /veh HLA-DPB1 (11760878_x_at) / RFU SPINT1 (11716480_a_at) / Fold change /veh SPINT1 (11716480_a_at) / RFU GAP43 (11754022_s_at) / Fold change /veh GAP43 (11754022_s_at) / RFU A4GNT (11735810_at) / Fold change /veh A4GNT (11735810_at) / RFU PRB3 (11715151_x_at) / Fold change /veh PRB3 (11715151_x_at) / RFU TUBB4B (11761932_at) / Fold change /veh TUBB4B (11761932_at) / RFU CAPN14 (11732068_a_at) / Fold change /veh CAPN14 (11732068_a_at) / RFU TMCC2 (11721928_a_at) / Fold change /veh TMCC2 (11721928_a_at) / RFU IRGQ (11745062_a_at) / Fold change /veh IRGQ (11745062_a_at) / RFU FAM174B (11720279_a_at) / Fold change /veh FAM174B (11720279_a_at) / RFU TMPRSS4 (11748680_a_at) / Fold change /veh TMPRSS4 (11748680_a_at) / RFU FAM212B (11763350_a_at) / Fold change /veh FAM212B (11763350_a_at) / RFU PLEKHG5 (11743358_a_at) / Fold change /veh PLEKHG5 (11743358_a_at) / RFU ZSCAN30 (11745921_a_at) / Fold change /veh ZSCAN30 (11745921_a_at) / RFU CMKLR1 (11741424_a_at) / Fold change /veh CMKLR1 (11741424_a_at) / RFU LOC101060620 /// MAPK8IP1 (11723275_at) / Fold change /veh LOC101060620 /// MAPK8IP1 (11723275_at) / RFU SPTSSB (11747773_x_at) / Fold change /veh SPTSSB (11747773_x_at) / RFU PRSS12 (11739890_at) / Fold change /veh PRSS12 (11739890_at) / RFU BIN1 (11741810_x_at) / Fold change /veh BIN1 (11741810_x_at) / RFU WNT11 (11732464_a_at) / Fold change /veh WNT11 (11732464_a_at) / RFU C10orf10 (11716521_a_at) / Fold change /veh C10orf10 (11716521_a_at) / RFU C5orf56 (11738089_at) / Fold change /veh C5orf56 (11738089_at) / RFU CYB561 (11721691_x_at) / Fold change /veh CYB561 (11721691_x_at) / RFU ANKRD19P (11752326_a_at) / Fold change /veh ANKRD19P (11752326_a_at) / RFU OR2T12 /// OR2T33 /// OR2T8 (11738714_s_at) / Fold change /veh OR2T12 /// OR2T33 /// OR2T8 (11738714_s_at) / RFU VCAN (11748164_a_at) / Fold change /veh VCAN (11748164_a_at) / RFU JSRP1 (11732532_at) / Fold change /veh JSRP1 (11732532_at) / RFU KRTAP10-11 (11738290_x_at) / Fold change /veh KRTAP10-11 (11738290_x_at) / RFU MYO3A (11730013_a_at) / Fold change /veh MYO3A (11730013_a_at) / RFU EBF3 (11725865_a_at) / Fold change /veh EBF3 (11725865_a_at) / RFU CAMK2N1 (11719241_x_at) / Fold change /veh CAMK2N1 (11719241_x_at) / RFU C5orf56 (11738088_a_at) / Fold change /veh C5orf56 (11738088_a_at) / RFU OLFML3 (11715873_a_at) / Fold change /veh OLFML3 (11715873_a_at) / RFU LOC100653217 /// NTM (11731650_a_at) / Fold change /veh LOC100653217 /// NTM (11731650_a_at) / RFU MAPK11 (11762145_a_at) / Fold change /veh MAPK11 (11762145_a_at) / RFU FIZ1 (11724087_x_at) / Fold change /veh FIZ1 (11724087_x_at) / RFU OASL (11726364_x_at) / Fold change /veh OASL (11726364_x_at) / RFU SOX15 (11748057_x_at) / Fold change /veh SOX15 (11748057_x_at) / RFU CD79A (11719716_a_at) / Fold change /veh CD79A (11719716_a_at) / RFU HIST1H1D (11736915_at) / Fold change /veh HIST1H1D (11736915_at) / RFU CASKIN2 (11723855_a_at) / Fold change /veh CASKIN2 (11723855_a_at) / RFU LOC730098 (11760151_x_at) / Fold change /veh LOC730098 (11760151_x_at) / RFU OR4N2 (11742367_at) / Fold change /veh OR4N2 (11742367_at) / RFU PRRT2 (11749266_a_at) / Fold change /veh PRRT2 (11749266_a_at) / RFU SNX32 (11753110_a_at) / Fold change /veh SNX32 (11753110_a_at) / RFU CDHR5 (11726645_a_at) / Fold change /veh CDHR5 (11726645_a_at) / RFU RCAN1 (11760418_a_at) / Fold change /veh RCAN1 (11760418_a_at) / RFU FAM167A (11723789_a_at) / Fold change /veh FAM167A (11723789_a_at) / RFU FAM26E (11764081_at) / Fold change /veh FAM26E (11764081_at) / RFU ISYNA1 (11749810_s_at) / Fold change /veh ISYNA1 (11749810_s_at) / RFU ACY1 (11761880_at) / Fold change /veh ACY1 (11761880_at) / RFU 11764098_at / Fold change /veh 11764098_at / RFU SAMD14 (11745864_x_at) / Fold change /veh SAMD14 (11745864_x_at) / RFU NPB (11741838_a_at) / Fold change /veh NPB (11741838_a_at) / RFU TMPRSS6 (11731388_a_at) / Fold change /veh TMPRSS6 (11731388_a_at) / RFU KRTAP10-2 (11738614_at) / Fold change /veh KRTAP10-2 (11738614_at) / RFU ARHGAP8 /// PRR5-ARHGAP8 (11727945_x_at) / Fold change /veh ARHGAP8 /// PRR5-ARHGAP8 (11727945_x_at) / RFU KRTAP5-7 /// NADSYN1 (11734609_at) / Fold change /veh KRTAP5-7 /// NADSYN1 (11734609_at) / RFU RASL12 (11751679_a_at) / Fold change /veh RASL12 (11751679_a_at) / RFU CDKN2B (11736163_a_at) / Fold change /veh CDKN2B (11736163_a_at) / RFU PRF1 (11729649_at) / Fold change /veh PRF1 (11729649_at) / RFU, ZNF638 /// ZNF638-IT1 / Fold change vs veh, ZNF638 /// ZNF638-IT1 / RFU, PANK3 / Fold change vs veh, PANK3 / RFU, SH3YL1 / Fold change vs veh, SH3YL1 / RFU, ZEB2 / Fold change vs veh, ZEB2 / RFU, NRIP1 / Fold change vs veh, NRIP1 / RFU, PTTG1IP / Fold change vs veh, PTTG1IP / RFU, CAPN2 / Fold change vs veh, CAPN2 / RFU, MED14 / Fold change vs veh, MED14 / RFU, SNORA58 / Fold change vs veh, SNORA58 / RFU, C1orf63 / Fold change vs veh, C1orf63 / RFU, LRRFIP1 / Fold change vs veh, LRRFIP1 / RFU, NDUFAF7 / Fold change vs veh, NDUFAF7 / RFU, SLC12A2 / Fold change vs veh, SLC12A2 / RFU, IBTK / Fold change vs veh, IBTK / RFU, ESF1 / Fold change vs veh, ESF1 / Fold change vs veh, TMEM50B / RFU, TAOK1 / Fold change vs veh, TAOK1 / RFU, ACBD3 / Fold change vs veh, ACBD3 / RFU, TMA16 / Fold change vs veh, TMA16 / RFU, RWDD3 / Fold change vs veh, RWDD3 / RFU, BCAT1 / Fold change vs veh, BCAT1 / RFU, EDEM3 / Fold change vs veh, EDEM3 / RFU, TMEM33 / Fold change vs veh, TMEM33 / RFU, WDR75 / Fold change vs veh, WDR75 / RFU, AHCTF1 / Fold change vs veh, AHCTF1 / RFU, TFRC / Fold change vs veh, TFRC / RFU, ZDHHC17 / Fold change vs veh, ZDHHC17 / RFU, NOM1 / Fold change vs veh, NOM1 / RFU, ARL8B / Fold change vs veh, ARL8B / RFU, ZBTB11 / Fold change vs veh, ZBTB11 / RFU, TAMM41 / Fold change vs veh, TAMM41 / RFU, KIAA1704 /// LOC100996395 / Fold change vs veh, KIAA1704 /// LOC100996395 / RFU, ING1 / Fold change vs veh, ING1 / RFU, TRMT61B / Fold change vs veh, TRMT61B / RFU, FUBP3 / Fold change vs veh, FUBP3 / RFU, TP53 / Fold change vs veh, TP53 / RFU, TNKS2 / Fold change vs veh, TNKS2 / RFU, ZFP14 / Fold change vs veh, ZFP14 / RFU, ACTR2 / Fold change vs veh, ACTR2 / RFU, PPP3R1 / Fold change vs veh, PPP3R1 / RFU, PIK3R1 / Fold change vs veh, PIK3R1 / RFU, HNRNPA1 / Fold change vs veh, HNRNPA1 / RFU, RNF170 / Fold change vs veh, RNF170 / RFU, ZNF28 / Fold change vs veh, ZNF28 / RFU, RNGTT / Fold change vs veh, RNGTT / RFU, OGT / Fold change vs veh, OGT / RFU, BRD1 / Fold change vs veh, BRD1 / RFU, MARS / Fold change vs veh, MARS / RFU, ZNF655 / Fold change vs veh, ZNF655 / RFU, FAHD1 / Fold change vs veh, FAHD1 / RFU, BDP1 / Fold change vs veh, BDP1 / RFU, LRRCC1 / Fold change vs veh, LRRCC1 / RFU, ARID1A / Fold change vs veh, ARID1A / RFU, ZNF146 / Fold change vs veh, ZNF146 / RFU, ZNF330 / Fold change vs veh, ZNF330 / RFU, GPN3 / Fold change vs veh, GPN3 / RFU, C9orf123 / Fold change vs veh, C9orf123 / RFU, N4BP2L2 / Fold change vs veh, N4BP2L2 / RFU, ARFIP1 / Fold change vs veh, ARFIP1 / RFU, FAM179B / Fold change vs veh, FAM179B / RFU, BCL10 / Fold change vs veh, BCL10 / RFU, UHRF1BP1L / Fold change vs veh, UHRF1BP1L / RFU, BET1 / Fold change vs veh, BET1 / RFU, CNOT2 / Fold change vs veh, CNOT2 / RFU, ZNF268 / Fold change vs veh, ZNF268 / Fold change vs veh, ZNF507 / RFU, DGCR2 / Fold change vs veh, DGCR2 / RFU, WDSUB1 / Fold change vs veh, WDSUB1 / Fold change vs veh, HSP90B1 /// MIR3652 / RFU, ADSS / Fold change vs veh, ADSS / RFU, GK / Fold change vs veh, GK / RFU, ZNF148 / Fold change vs veh, ZNF148 / RFU, TAF9 / Fold change vs veh, TAF9 / RFU, SLC1A5 / Fold change vs veh, SLC1A5 / RFU, SLMO2 / Fold change vs veh, SLMO2 / RFU, ABCC4 / Fold change vs veh, ABCC4 / RFU, LOC101060439 /// RAP1B / Fold change vs veh, LOC101060439 /// RAP1B / RFU, RFX7 / Fold change vs veh, RFX7 / RFU, GTPBP10 / Fold change vs veh, GTPBP10 / RFU, CNEP1R1 / Fold change vs veh, CNEP1R1 / RFU, BIVM-ERCC5 /// ERCC5 / Fold change vs veh, BIVM-ERCC5 /// ERCC5 / RFU, ILF3 / Fold change vs veh, ILF3 / RFU 11762660_at / Fold change /veh 11762660_at / RFU VCAN (11757783_s_at) / Fold change /veh VCAN (11757783_s_at) / RFU DDX43 (11728927_at) / Fold change /veh DDX43 (11728927_at) / RFU KRT8 (11758188_x_at) / Fold change /veh KRT8 (11758188_x_at) / RFU NKD1 (11759106_at) / Fold change /veh NKD1 (11759106_at) / RFU SRD5A1 (11742802_a_at) / Fold change /veh SRD5A1 (11742802_a_at) / RFU TPSAB1 /// TPSB2 (11721975_s_at) / Fold change /veh TPSAB1 /// TPSB2 (11721975_s_at) / RFU GSTM3 (11746129_a_at) / Fold change /veh GSTM3 (11746129_a_at) / RFU IL23R (11737362_x_at) / Fold change /veh IL23R (11737362_x_at) / RFU TMEM51 (11727254_a_at) / Fold change /veh TMEM51 (11727254_a_at) / RFU PIWIL2 (11732686_x_at) / Fold change /veh PIWIL2 (11732686_x_at) / RFU ORM1 (11744905_x_at) / Fold change /veh ORM1 (11744905_x_at) / RFU CCDC152 (11743942_at) / Fold change /veh CCDC152 (11743942_at) / RFU ECM1 (11717891_a_at) / Fold change /veh ECM1 (11717891_a_at) / RFU IL23R (11748794_a_at) / Fold change /veh IL23R (11748794_a_at) / RFU TNFAIP8L3 (11732012_x_at) / Fold change /veh TNFAIP8L3 (11732012_x_at) / RFU MBOAT4 (11741988_at) / Fold change /veh MBOAT4 (11741988_at) / RFU 11764193_at / Fold change /veh 11764193_at / RFU TMEM53 (11763286_at) / Fold change /veh TMEM53 (11763286_at) / RFU MAGEB2 (11727129_at) / Fold change /veh MAGEB2 (11727129_at) / RFU TMEM200A (11744735_a_at) / Fold change /veh TMEM200A (11744735_a_at) / RFU CCDC152 (11751479_a_at) / Fold change /veh CCDC152 (11751479_a_at) / RFU FAM211A (11726209_a_at) / Fold change /veh FAM211A (11726209_a_at) / RFU RGS16 (11746705_a_at) / Fold change /veh RGS16 (11746705_a_at) / RFU VCAN (11755009_s_at) / Fold change /veh VCAN (11755009_s_at) / RFU RHOB (11743442_s_at) / Fold change /veh RHOB (11743442_s_at) / RFU RGS16 (11720943_a_at) / Fold change /veh RGS16 (11720943_a_at) / RFU RGS16 (11720944_at) / Fold change /veh RGS16 (11720944_at) / RFU, VPS4B / Fold change vs veh, VPS4B / RFU, CREB1 / Fold change vs veh, CREB1 / RFU, DNAJC13 / Fold change vs veh, DNAJC13 / RFU, GNAQ / Fold change vs veh, GNAQ / RFU, CDK5R1 / Fold change vs veh, CDK5R1 / RFU, ZRANB3 / Fold change vs veh, ZRANB3 / RFU, CUL4A / Fold change vs veh, CUL4A / RFU, CCNY / Fold change vs veh, CCNY / RFU, UFL1 / Fold change vs veh, UFL1 / RFU, COG3 / Fold change vs veh, COG3 / RFU, DIAPH2 / Fold change vs veh, DIAPH2 / RFU, SKA2 / Fold change vs veh, SKA2 / RFU, AFF3 / Fold change vs veh, AFF3 / RFU, LMF1 / Fold change vs veh, LMF1 / RFU, IPO11 / Fold change vs veh, IPO11 / RFU, DFFB / Fold change vs veh, DFFB / RFU, FOXP1 / Fold change vs veh, FOXP1 / RFU, CARD8 / Fold change vs veh, CARD8 / RFU, STRN3 / Fold change vs veh, STRN3 / RFU, ADK / Fold change vs veh, ADK / RFU, RASSF2 / Fold change vs veh, RASSF2 / RFU, WIPF1 / Fold change vs veh, WIPF1 / RFU, LARP1B / Fold change vs veh, LARP1B / RFU, RASA1 / Fold change vs veh, RASA1 / RFU, RB1 / Fold change vs veh, RB1 / RFU, PPFIA1 / Fold change vs veh, PPFIA1 / RFU, MAT2A / Fold change vs veh, MAT2A / RFU, CCT5 / Fold change vs veh, CCT5 / RFU, WDR92 / Fold change vs veh, WDR92 / RFU, CUX1 / Fold change vs veh, CUX1 / RFU, TTC7A / Fold change vs veh, TTC7A / RFU, TMEM135 / Fold change vs veh, TMEM135 / RFU, DEPTOR / Fold change vs veh, DEPTOR / RFU, CPM / Fold change vs veh, CPM / RFU, DNAJB6 / Fold change vs veh, DNAJB6 / RFU, CACNA2D3 / Fold change vs veh, CACNA2D3 / RFU, DTX4 / Fold change vs veh, DTX4 / RFU, TFCP2 / Fold change vs veh, TFCP2 / RFU, GMCL1 /// GMCL1P1 / Fold change vs veh, GMCL1 /// GMCL1P1 / RFU, AEBP2 / Fold change vs veh, AEBP2 / RFU, SNHG1 /// SNORD22 /// SNORD25 /// SNORD26 /// SNORD27 /// SNORD28 /// SNORD29 /// SNORD31 / Fold change vs veh, SNHG1 /// SNORD22 /// SNORD25 /// SNORD26 /// SNORD27 /// SNORD28 /// SNORD29 /// SNORD31 / Fold change (Aza/veh), C12orf56 (ProbeSet 11735607_a_at) / Fold change (ACY-1035/veh), C12orf56 (ProbeSet 11735607_a_at) / Fold change (Aza/veh), FGFR1OP (ProbeSet 11751329_s_at) / Fold change (ACY-1035/veh), FGFR1OP (ProbeSet 11751329_s_at) / Fold change (Aza/veh), VPS36 (ProbeSet 11739960_a_at) / Fold change (ACY-1035/veh), VPS36 (ProbeSet 11739960_a_at) / RFU SYPL1 (11715823_x_at) / Fold change /veh SYPL1 (11715823_x_at) / RFU IGFBP7 (11715501_s_at) / Fold change /veh IGFBP7 (11715501_s_at) / RFU REEP3 (11722064_at) / Fold change /veh REEP3 (11722064_at) / RFU IGLL1 (11728026_x_at) / Fold change /veh IGLL1 (11728026_x_at): dose or concentration left out as unconfirmed
Conditions: ProbeSet 11749645_x_at; LIST B

Structure (SMILES): Nc1ccc(-c2cccs2)cc1NC(=O)c1ccc2c(c1)cc(C1CC1)n2CCN1CCOCC1 [ACY-1035]
- Fold change vs veh, ZNF268: 0.87
